Read-outs that look alike come from different tables or passages of the source.
How the values were obtained:
[1] = target: Gal4 DNA binding domain fused to the LBD of LXRα in HEK293 cells (Homo sapiens (Human), UniProt Q13133); experiment: LXR luciferase transcriptional reporter gene assay, agonist mode, LXRα; format: cell-based; conditions: for EC50: read-out: Cell LXRα EC50
[2] = target: Gal4 DNA binding domain fused to the LBD of LXRβ in HEK293 cells (Homo sapiens (Human), UniProt P55055); experiment: cell-based
Sequence of Gal4 DNA binding domain fused to the LBD of LXRβ in HEK293 cells (P55055 222-460 limits assumed): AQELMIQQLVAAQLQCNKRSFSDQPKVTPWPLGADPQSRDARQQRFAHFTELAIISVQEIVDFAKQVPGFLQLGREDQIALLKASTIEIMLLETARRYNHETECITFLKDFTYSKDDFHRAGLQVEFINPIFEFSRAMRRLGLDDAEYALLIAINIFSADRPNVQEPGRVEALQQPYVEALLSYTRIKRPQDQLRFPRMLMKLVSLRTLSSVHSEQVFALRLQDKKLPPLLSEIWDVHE

Sequence of Gal4 DNA binding domain fused to the LBD of LXRα in HEK293 cells (Q13133 209-447): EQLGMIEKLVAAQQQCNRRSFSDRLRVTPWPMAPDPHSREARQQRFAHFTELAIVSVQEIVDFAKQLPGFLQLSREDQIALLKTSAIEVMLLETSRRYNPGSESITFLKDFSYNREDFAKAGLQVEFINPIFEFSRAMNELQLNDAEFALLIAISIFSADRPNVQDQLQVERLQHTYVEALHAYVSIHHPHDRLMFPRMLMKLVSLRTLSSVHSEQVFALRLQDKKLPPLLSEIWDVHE

SMILES | Cell LXRα efficacy [1] | EC50 ([1]; agonist mode) [nM] | also measured
CC(C)[C@H]1CN(c2cccc(S(C)(=O)=O)c2)CCN1C[C@H]1CC[C@@H](C(F)(F)F)CC1 (single isomer, unassigned) [Cpd No 48-11] | 53 (101) % | 53 | 
CC(C)[C@@H]1CN(c2ccc(F)c(S(C)(=O)=O)c2)CCN1C(=O)OCC(F)(F)F [5-4, 2,2,2-trifluoroethyl (R)-4-(4-fluoro-3-(methylsulfonyl)phenyl)-2-isopropylpiperazine-1-carboxylate] |  |  | EC50 [2]: 732 nM
CC(C)[C@@H]1CN(c2cccc(S(C)(=O)=O)c2)CCN1c1ncc(Br)cn1 [7-16, (R)-5-bromo-2-(2-isopropyl-4-(3-(methylsulfonyl)phenyl)piperazin-1-yl)pyrimidine] | 1282 (85) % | 1280 | 
CC(C)[C@@H]1CN(c2ccc(F)c(S(C)(=O)=O)c2)CCN1c1ccc(F)c(C(F)(F)F)n1 [7-33, (R)-4-(4-fluoro-3-(methylsulfonyl)phenyl)-1-(5-fluoro-6-(trifluoromethyl)pyridin-2-yl)-2-isopropylpiperazine] | 307 (115) % | 307 | 
COC(=O)c1cnc(N2CCN(c3ccc(F)c(S(=O)(=O)N(C)Cc4ccc(OC)cc4)c3)C[C@H]2C(C)C)nc1C(F)(F)F [9-3, methyl (R)-2-(4-(4-fluoro-3-(N-(4-methoxybenzyl)-N-methylsulfamoyl)phenyl)-2-isopropylpiperazin-1-yl)-4-(trifluoromethyl)pyrimidine-5-carboxylate] | 951 (50) % | 951 | 
Cc1nc(N2CCN(c3ccc(F)c(S(C)(=O)=O)c3)C[C@@H]2C(C)(C)O)ccc1C(F)(F)F [10-9, (R)-2-(4-(4-fluoro-3-(methylsulfonyl)phenyl)-1-(6-methyl-5-(trifluoromethyl)pyridin-2-yl)piperazin-2-yl)propan-2-ol] |  | > 20000 | 
Cc1nc(N2CCN(c3ccc(F)c(S(C)(=O)=O)c3)C[C@H]2C(C)(C)O)ccc1C(F)(F)F [10-10, (S)-2-(4-(4-fluoro-3-(methylsulfonyl)phenyl)-1-(6-methyl-5-(trifluoromethyl)pyridin-2-yl)piperazin-2-yl)propan-2-ol] | 13605 (107) % | 13600 | 
COC(=O)c1ccc(N2CCN(Cc3ccc(C(F)(F)F)c(Cl)c3)C(c3ccccc3)C2)cc1S(C)(=O)=O (stereo not drawn) [46-38, methyl 4-(4-(3-chloro-4-(trifluoromethyl)benzyl)-3-phenylpiperazin-1-yl)-2-(methylsulfonyl)benzoate] | 1088 (25) % | 1090 | 
CS(=O)(=O)c1cccc(N2CCN(Cc3ccc(C(F)(F)F)nc3)C(c3ccc(Br)cc3)C2)c1 (stereo not drawn) [46-61, 2-(4-bromophenyl)-4-(3-(methylsulfonyl)phenyl)-1-((6-(trifluoromethyl)pyridin-3-yl)methyl)piperazine] |  | > 20000 | 
CS(=O)(=O)c1cccc(N2CCN(C[C@H]3CCC[C@@H](C(F)(F)F)C3)[C@@H](c3ccc(F)cc3)C2)c1 [48-42, (S)-2-(4-fluorophenyl)-4-(3-(methylsulfonyl)phenyl)-1-(((1S,3R)-3-(trifluoromethyl)cyclohexyl)methyl)piperazine] |  | > 20000 | 
CC(C)[C@H]1CN(c2cccc(S(C)(=O)=O)c2)CCN1CC1CCC(C(F)(F)F)NC1 (stereo partly drawn) [48-68, (2S)-2-isopropyl-4-(3-(methylsulfonyl)phenyl)-1-((6-(trifluoromethyl)piperidin-3-yl)methyl)piperazine] | 1224 (75) % |  | EC50 ([1]; Biological Test Example 2, agonist mode): 1220 nM
CC(C)[C@@H]1CN(c2ccc(F)c(S(C)(=O)=O)c2)CCN1C(=O)OC1CC(F)(F)C1(F)F (stereo partly drawn) [Cpd No 5-1, 2,2,3,3-tetrafluorocyclobutyl (2R)-4-(4-fluoro-3-(methylsulfonyl)phenyl)-2-isopropylpiperazine-1-carboxylate] |  |  | EC50 [2]: 272 nM
Cc1cnc(N2CCN(c3ccc(F)c(S(C)(=O)=O)c3)C[C@H]2C(C)C)nc1C(F)(F)F [Cpd No 37-3, (R)-2-(4-(4-fluoro-3-(methylsulfonyl)phenyl)-2-isopropylpiperazin-1-yl)-5-methyl-4-(trifluoromethyl)pyrimidine] |  |  | Cell LXRβ efficacy [2]: 11 (96) %; EC50 [2]: 11 nM
